Assay results from US12065421B2, “Inhibitors of oplophorus luciferase-derived bioluminescent complexes” (priority 2018, dated 2024).

Legend:
NanoLuc = NanoLuc (Oplophorus gracilirostris, UniProt Q9GV45, A31E/A60N/A81I/F95D/I117V/K70R/L54V/L99Q/M102K/N193R/P142E/Q151K/Q38R/Q45L/V71I/Y165I); experiment: NANOLUC® (Nluc) inhibitory activity (FIG. 2); format: biochemical; conditions: Nluc 2 ng/ml in NanoGlo® buffer, 100 μM furimazine
Procedure: FIG. 2 compares the NANOLUC® (Nluc) inhibitory activity of exemplary compounds of the present invention to PBI-6096, a known Nluc inhibitor. Inhibitors were diluted into CO2-independent media with 10% FBS. Nluc was diluted to 2 ng/ml into NanoGlo® buffer with 100 μM furimazine. Serial dilutions of the inhibitors were added to the NanoLuc/furimazine/NanoGlo® solution, and samples were immediately analyzed using a GloMax®-Multi+ Plate Reader.

[1] = system: NanoBiT® HiBit/LgBit bioluminescent complex; experiment: Inhibition of bioluminescent complex in lysed HEK293 cells expressing HiBiT fusion plus purified LgBiT (FIG. 3A); format: cell-based, Oplophorus gracilirostris; conditions: HEK293 cells lysed with digitonin, purified LgBiT added, 2 hours, 10 μM furimazine
Procedure: FIGS. 3A-3B show the inhibition of bioluminescent complexes in cells. In FIG. 3A, HEK293 cells were transfected with DNA encoding an intracellular NanoBiT® HiBiT fusion protein, plated at 20,000 cells/100 μL growth medium, and incubated for 24 hours. Following 24 hours of expression, cells were lysed with 50 ug/mL (final) of digitonin in OptiMEM and treated with purified NanoBiT® LgBiT non-luminescent polypeptide and serial dilutions of HL-0005. After 2 hours of incubation at room temperature, furimazine was added (10 μM final concentration), and luminescence was measured on a GloMax®-Multi+ Plate Reader.

[2] = system: NanoBiT® HiBit/LgBit bioluminescent complex; format: cell-based, Oplophorus gracilirostris; conditions: HEK293 cells, optionally lysed with 50 ug/mL digitonin
Procedure: In FIG. 3B, HEK293 cells were transfected with DNA encoding an intracellular NanoBiT® HiBiT fusion protein and DNA encoding an intracellular NanoBiT® LgBiT fusion protein such that the fusion proteins were co-expressed within the cell. Transfected cells were plated at 20,000 cells/100 μL growth medium and incubated for 24 hours. Following 24 hours of expression, cells were optionally lysed with 50 ug/mL of digitonin in OptiMEM and treated with serial dilutions of HL-0005. After 2 hours of incubation at room temperature, furimazine was added (10 μM final concentration), and luminescence was measured on a GloMax® Multi+ Plate Reader.

Chain of NanoLuc (Q9GV45 28-196 with tags or gaps with the stated changes limits assumed): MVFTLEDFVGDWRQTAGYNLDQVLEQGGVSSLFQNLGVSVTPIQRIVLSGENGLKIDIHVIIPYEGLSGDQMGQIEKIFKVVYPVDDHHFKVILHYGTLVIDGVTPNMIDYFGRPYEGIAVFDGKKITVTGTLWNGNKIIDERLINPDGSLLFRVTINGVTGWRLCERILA

| SMILES | inhibition against NanoLuc (NanoLuc) | inhibition of HiBit/LgBit bioluminescent complex in a cellular context [1] | cell permeability (IC50 values in lytic and non-lytic conditions compared) [2] |
| --- | --- | --- | --- |
| N#Cc1c(NC(=O)c2ccccc2NS(=O)(=O)c2ccccc2)sc2c1CCC2 [HL-0010, N-(3-cyano-5,6-dihydro-4H-cyclopenta[b]thiophen-2-yl)-2-(phenylsulfonamido)benzamide] | do not show any appreciable inhibition | – | – |
| Cc1ccc(S(=O)(=O)Nc2ccccc2C(=O)Nc2sc3c(c2C#N)CCCC3)cc1 [JRW-1004, N-(3-cyano-4,5,6,7-tetrahydrobenzo[b]thiophen-2-yl)-2-((4-methylphenyl)sulfonamido)benzamide] | do not show any appreciable inhibition | – | – |
| Cc1ccc(S(=O)(=O)Nc2ccccc2C(=O)Nc2cc3ccccc3s2)cc1 [HL-0005, N-(benzo[b]thiophen-2-yl)-2-((4-methylphenyl)sulfonamido)benzamide] | do not show any appreciable inhibition | inhibition | mostly cell permeable |
